For one assay, the system named is OVCAR-3 xenograft. The assay is described as follows: OVCAR-3 ovarian cancer xenograft. In kind it is in vivo. Conditions: for Tumor weights at necropsy: Phor18-LHRH: 2 and 0.2 mg/kg vs saline and Phor18, p<0.05; for Tumor volume: during treatment. The method, then:
The xenograft model of the OVCAR-3 human ovarian cancer cell line that present functional LHRH receptors was used in this study. OVCAR-3 represents a slow growing xenograft model and secretes the tumor marker (cancer antigen 125, or CA125). It's secretion can be used as treatment response and is a measure of drug activity.
In brief, Nu/Nu female mice, inbred strain, age 5 weeks (Harlan-Sprague Dawley) were injected subcutaneously with a NIH:OVCAR-3 cells/Matrigel suspension (4.6×10^6 cells/mouse). Treatment was started on day 33 after tumor cell injection when the tumors were established and continued on days 41 and 47. The doses for the 3 weekly injections were 0.02, 0.2 and 2 mg/kg body weight, given as a single bolus intravenous injection via lateral tail vein administered once a week for three weeks on days 33, 41 and 47. Necropsies were conducted on day 52. Data are presented as mean SEM. Arrows show dosing.
A group of 9 tumor bearing mice was sacrificed on day 33 and served as baseline group. All mice were necropsied 51-52 days after tumor cell injection. Tumor volumes and bodyweights were recorded twice weekly during the study, as well as overall veterinarian examination of mice was conducted.
Primary tumors, liver, kidney, pancreas, heart, lung, and spleen were collected, fixed in formalin and prepared for histological evaluation. Tumor weights were measured at necropsy, part of the tumors were frozen at −80° C. for LH/CG and LHRH receptor assay determination.
As a biomarker for drug activity, CA125 was determined in serum, collected from each individual mouse at necropsy using a Enzyme Linked Immunoassay for quantitative determination of ovarian cancer antigen CA125 (Assay kit Genway, Biotech, Inc. San Diego, Calif., Catalog #40-052-115009, # BC-1013 according to the manufacturer).
LHRH receptor levels were assessed from formalin fixed tumors. Quantitative immunoperoxidase image analysis was conducted with the Ventana Image Analysis System (VIAS) adjunctive computer assisted image analysis system functionally connected to an interactive microscope (Axio Imager). The quantitative analysis was conducted with the program for quantification of Her2/neu receptor that included morphometric and colorimetric analysis. Receptor status results were reported as percentage of cells showing positive staining of the LHRH receptors under the following criteria: 0 non-immunoreactive, 1+: 1-25% positive, 2+: 26 50% positive, 3+: 51-75% positive cells.

In another assay the test system is PC-3 xenograft. The assay is described as follows: PC-3 prostate cancer xenograft, Phor18-LHRH. Type of assay: in vivo, mice. As to conditions: for Overall efficacy in PC-3 xenografts: mouse, in vivo. The method, then: PC-3 xenografts untreated cause significant weight loss in mice.
In brief, Nu/Nu male mice, outbred strain, age 6 weeks (Charles River) were injected subcutaneously with a PC-3 cells/Matrigel suspension (1×10^6 cells/mouse). Treatment was started on day 15 after tumor cell injection when the tumors were established and continued on days 22 and 29. The doses for the 3 weekly injections were 2, 0.2 and 0.02 mg/kg body weight, given as a bolus single intravenous injection via lateral tail vein.
A group of 12 tumor bearing mice was sacrificed on day 15 and served as baseline group. All mice were necropsied 35 and 36 days after tumor cell injection. Tumor volumes and bodyweights were recorded twice weekly during the study, as well as overall veterinarian examination of mice was conducted.
Primary tumors, liver, kidney, pancreas, heart, lung, and spleen were collected, fixed in formalin and prepared for histological evaluation. Tumor weights were measured at necropsy, part of the tumors were frozen at 80° C. for LH/CG and LHRH receptor assay determination.

The test system of the next assay is MDA-MB 435S cells. The assay is described as follows: In vitro kinetics of cytotoxicity (MTT), MDA-MB-435S cells. In kind it is cell-based, human. Conditions: all cell lines presenting functional LHRH receptors (MDA-MB-435, MCF-7, OVCAR-3). An excerpt: Membranes of non-cancerous cell lines are neutral and are resistant to cytolytic peptides, in contrast to cancer cell lines, which have a high phosphatidic acid content in their outer membrane.
The breast cancer cell lines studied were MDA-MB-4355 (estrogen receptor alpha negative), MCF-7 and T47D (estrogen receptor alpha positive), ovarian cancer cell lines (OVCAR-3 and SKOV-3), prostate cancer (LNCaP), the non-malignant breast epithelial cell line MCF-10A and the mouse fibroblast cell line NIH:3T3.
Cells were seeded into 96 well plates at a densitiy of 10,000 cells/well. […] Controls contained USP saline or 0.1% TritonX-100™ as reference for 0 and 100% cell death, respectively. […] Cell viability was assessed through formazan conversion assay (MTT assay, (CellTiter 96 Aqueous One, Promega # G3582). Formazan conversion was determined using a BioRad Benchmark Plus microplate spectrophotometer dual wavelengths at 490/630 nm at room temperature).
Data were calculated as fraction of absorption in TritonX-100™ containing wells representing 100% cell death versus 0% cell death in saline containing wells. Cytotoxicity was determined as IC50 using GraphPad Prism version 5.01 for Windows, GraphPad Software, San Diego Calif. […] 4 wells of each individual set of two 96 well plates were compared and analyzed. Statistical analysis for significance was determined by a two-tailed Student's T-test.

In a further assay the test system is MDA-MB-435S xenograft. The assay is described as follows: MDA-MB-435S xenograft, minimal effective dose, once weekly for 3 weeks. In kind it is in vivo, mice. The procedure:
To determine the minimal effective dose necessary to reduce MDA-MB-435S xenograft weights in a single dose regimen, Nu/Nu female mice, outbred strain, age 5 weeks (Charles River), were injected (s.c.) into the interscapular region with a MDA-MB-435S (passage #249)/Matrigel suspension (2.4×10^6 cells/mouse) [Leuschner 2006].
Each group consisted of 16 mice, which were injected once a week for 3 weeks. A group of 16 mice was sacrificed at the time of treatment start to serve as baseline. Saline injections served as control groups. During the entire study tumor volumes were recorded twice weekly.
Treatment started on day 16 after tumor cell injection when the tumors were established and continued on days 23 and 30. All remaining mice were necropsied 37 days after tumor cell injection.
Treatment response was determined by tumor weights and tumor weight change at necropsy compared to saline controls and untargeted Phor18 treatment. Primary tumors were collected, weighed and prepared for histological evaluation in formalin fixation with […]. Statistical evaluation of data sets were conducted in GraphPad Prizm 4 and significance calculated by Wilcoxon signed-rank test.

Take KFAKFAK KFAKFAK KFAK [Phor18]: in the assay on OVCAR-3 xenograft, the “Tumor weights at necropsy” value was “not effective”. Also, in the assay on OVCAR-3 xenograft (listed as CLIP71), the Tumor volume result is “no reduction”. Moreover, in the assay with PC-3 xenograft, the “Overall efficacy in PC-3 xenografts” value is “ineffective”. In addition, in the assay on MDA-MB 435S cells, the “Incubation time to maximum effect” value worked out at 24 h. For the same substance, the “Tumor volumes and tumor weights” value in the assay on MDA-MB-435S xenograft (mouse, in vivo) is “did not decrease tumor weights or destroy tumor tissue”.

Consider “KFAKFAKKFAKFAKKFAKQHWSYGLRPG [Phor18-LHRH]”, for which the “Lowest concentration with tumor volume reduction compared to baseline” value with OVCAR-3 xenograft (42 days after tumor cell injection, p<0.001) was 0.2 mg/kg. Besides, in the assay with OVCAR-3 xenograft, the “Tumor weights at necropsy” value is given as “Reduced tumor weights” and the Tumor volume result is given as “decreased”. Besides, the “Dose with greatest tumor regression compared to treatment start” value in the assay on OVCAR-3 xenograft (p<0.03 vs baseline) turned out to be 0.2 mg/kg. Moreover, the “Lowest concentration with tumor volume reduction compared to saline controls and CLIP71” value with PC-3 xenograft (22 days after tumor cell injection, p<0.001) turned out to be 0.002 mg/kg. Further, the “Tumor weights compared to saline controls and CLIP-71” value in the assay with PC-3 xenograft (all treated groups) was “significantly reduced”. For the same substance, in the assay on PC-3 xenograft (during treatment), the Tumor volume entry is “decreased”. Further, the “Overall efficacy in PC-3 xenografts” value with PC-3 xenograft is listed as “effective in arresting tumor growth”. For the same substance, the “Incubation time to maximum effect” value with MDA-MB 435S cells fell in the range of 0.5 to 1 h. The “Remarks / histological evaluation of tumors” value in the assay with MDA-MB-435S xenograft (hematoxylin/eosin) was “significant necrosis”. The “Lowest dose with significant necrosis in tumors” value in the assay on MDA-MB-435S xenograft (mouse, in vivo) was 0.0002 mg/kg.

Source of the values: US20140161767A1, “FOLLICLE-STIMULATING HORMONE (FSH)/LYTIC DOMAIN FUSION CONSTRUCTS AND METHODS OF MAKING AND USING SAME” (BOARD OF SUPERVISORS OF LOUISIANA STATE UNIVERSITY AND …, priority 2012, published 2014).
